In doi:10.1101/2025.01.28.635346v1 (bioRxiv, 2025):
Read-outs that look alike come from different tables or passages of the source. Bridge positions count the residues as written; N and C are the ends. Side chains are listed from the residue outwards. Peptide text beside a SMILES is read from it. * marks the point of attachment. Butanoyl(4-(4-I-phenyl)) = O=C(CCCc1ccc(I)cc1)*; PEG2 = NCCOCCOCCC(=O)O

How the values were obtained:
HTR1B = HTR1B (Homo sapiens, UniProt P28222); assay: Safetyscan47 GPCR cAMP, Antagonist; format: cell-based; conditions: for Emax: read-out: Max Response
hERG = hERG (Homo sapiens, UniProt Q12809); assay: Safetyscan47 Ion Channel, Blocker; format: cell-based
CNR2 = CNR2 (Homo sapiens, UniProt P34972); assay: Safetyscan47 GPCR cAMP, Antagonist; format: cell-based; conditions: for Emax: read-out: Max Response
HTR2A = HTR2A (Homo sapiens, UniProt P28223); assay: Safetyscan47 GPCR Calcium Flux, Agonist; format: cell-based; conditions: for Emax: read-out: Max Response
COX1 = COX1 (Homo sapiens, UniProt P23219); assay: Safetyscan47 Non-Kinase Enzymes Enzymatic, Inhibitor; format: biochemical; conditions: for Emax: read-out: Max Response
ROCK1 = ROCK1 (Homo sapiens, UniProt Q13464); assay: Safetyscan47 Kinases Binding, Inhibitor; conditions: for Emax: read-out: Max Response
CHRM3 = CHRM3 (Homo sapiens, UniProt P20309); assay: Safetyscan47 GPCR Calcium Flux, Antagonist; format: cell-based; conditions: for Emax: read-out: Max Response
HRH1 = HRH1 (Homo sapiens, UniProt P35367); assay: Safetyscan47 GPCR Calcium Flux, Antagonist; format: cell-based; conditions: for Emax: read-out: Max Response
integrin αIIbβ3 = target: T1, integrin αIIbβ3 (Homo sapiens, UniProt P05106+P08514); assay: ELISA competition assay, integrin αIIbβ3; format: binding
T1 sequence (P08514 32-993 limits assumed): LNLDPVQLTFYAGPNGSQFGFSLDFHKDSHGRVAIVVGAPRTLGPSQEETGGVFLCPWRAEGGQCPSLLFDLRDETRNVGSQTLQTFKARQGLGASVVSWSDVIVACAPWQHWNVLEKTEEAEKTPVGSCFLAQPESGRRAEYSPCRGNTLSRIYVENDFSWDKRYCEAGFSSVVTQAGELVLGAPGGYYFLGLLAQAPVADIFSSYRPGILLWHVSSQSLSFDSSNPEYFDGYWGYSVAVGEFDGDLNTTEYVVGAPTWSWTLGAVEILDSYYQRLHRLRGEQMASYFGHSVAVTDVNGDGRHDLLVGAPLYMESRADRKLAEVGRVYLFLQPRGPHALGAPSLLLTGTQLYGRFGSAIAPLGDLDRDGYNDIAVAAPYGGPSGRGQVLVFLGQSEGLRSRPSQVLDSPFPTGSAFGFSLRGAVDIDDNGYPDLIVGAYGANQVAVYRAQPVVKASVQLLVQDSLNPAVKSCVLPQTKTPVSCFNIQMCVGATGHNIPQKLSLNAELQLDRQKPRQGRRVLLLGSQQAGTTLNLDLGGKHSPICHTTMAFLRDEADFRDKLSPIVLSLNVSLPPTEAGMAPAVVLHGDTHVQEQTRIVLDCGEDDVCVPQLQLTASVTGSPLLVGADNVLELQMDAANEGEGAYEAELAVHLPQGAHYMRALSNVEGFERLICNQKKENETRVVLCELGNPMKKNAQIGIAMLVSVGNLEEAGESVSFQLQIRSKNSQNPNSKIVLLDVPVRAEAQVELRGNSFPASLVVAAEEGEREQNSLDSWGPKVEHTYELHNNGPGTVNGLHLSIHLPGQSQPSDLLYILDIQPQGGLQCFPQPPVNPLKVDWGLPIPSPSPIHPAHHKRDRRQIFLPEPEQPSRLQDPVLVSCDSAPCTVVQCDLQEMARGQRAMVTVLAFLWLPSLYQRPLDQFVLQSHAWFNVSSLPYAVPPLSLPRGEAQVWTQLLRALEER
T1 sequence (P05106 27-718 limits assumed): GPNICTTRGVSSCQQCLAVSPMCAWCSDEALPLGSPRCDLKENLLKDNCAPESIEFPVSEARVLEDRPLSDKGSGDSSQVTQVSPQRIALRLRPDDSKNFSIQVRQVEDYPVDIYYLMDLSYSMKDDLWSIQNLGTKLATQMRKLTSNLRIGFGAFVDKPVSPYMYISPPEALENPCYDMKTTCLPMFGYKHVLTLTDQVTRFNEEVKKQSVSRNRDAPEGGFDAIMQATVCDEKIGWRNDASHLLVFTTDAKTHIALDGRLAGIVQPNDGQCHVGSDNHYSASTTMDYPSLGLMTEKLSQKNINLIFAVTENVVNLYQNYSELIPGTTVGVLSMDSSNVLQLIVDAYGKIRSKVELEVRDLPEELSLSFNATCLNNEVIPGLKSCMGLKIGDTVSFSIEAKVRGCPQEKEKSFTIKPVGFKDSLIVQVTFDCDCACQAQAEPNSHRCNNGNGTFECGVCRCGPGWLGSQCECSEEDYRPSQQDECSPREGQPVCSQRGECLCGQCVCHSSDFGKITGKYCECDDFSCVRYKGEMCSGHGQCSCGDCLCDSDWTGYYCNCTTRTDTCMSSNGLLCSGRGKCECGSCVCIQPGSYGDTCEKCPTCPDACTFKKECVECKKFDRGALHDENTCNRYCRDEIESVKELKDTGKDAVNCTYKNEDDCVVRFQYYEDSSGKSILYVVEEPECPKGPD

PDE4D2 = PDE4D2 (Homo sapiens, UniProt Q08499); assay: Safetyscan47 Non-Kinase Enzymes Enzymatic, Inhibitor; format: biochemical; conditions: for Emax: read-out: Max Response
HRH2 = HRH2 (Homo sapiens, UniProt P25021); assay: Safetyscan47 GPCR cAMP, Agonist; format: cell-based; conditions: for Emax: read-out: Max Response
Sequence of HRH2 (P25021 whole entry): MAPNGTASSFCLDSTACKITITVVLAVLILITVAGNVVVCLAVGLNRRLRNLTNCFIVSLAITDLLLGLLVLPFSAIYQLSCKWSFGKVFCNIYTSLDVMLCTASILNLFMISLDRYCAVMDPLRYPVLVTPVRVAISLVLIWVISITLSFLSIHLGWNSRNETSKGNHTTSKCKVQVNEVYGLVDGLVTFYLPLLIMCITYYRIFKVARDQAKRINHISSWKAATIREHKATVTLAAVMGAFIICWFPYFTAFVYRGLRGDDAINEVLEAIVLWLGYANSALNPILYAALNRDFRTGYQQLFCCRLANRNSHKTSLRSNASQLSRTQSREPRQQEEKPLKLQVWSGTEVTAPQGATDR

Sequence of CNR2 (P34972 whole entry): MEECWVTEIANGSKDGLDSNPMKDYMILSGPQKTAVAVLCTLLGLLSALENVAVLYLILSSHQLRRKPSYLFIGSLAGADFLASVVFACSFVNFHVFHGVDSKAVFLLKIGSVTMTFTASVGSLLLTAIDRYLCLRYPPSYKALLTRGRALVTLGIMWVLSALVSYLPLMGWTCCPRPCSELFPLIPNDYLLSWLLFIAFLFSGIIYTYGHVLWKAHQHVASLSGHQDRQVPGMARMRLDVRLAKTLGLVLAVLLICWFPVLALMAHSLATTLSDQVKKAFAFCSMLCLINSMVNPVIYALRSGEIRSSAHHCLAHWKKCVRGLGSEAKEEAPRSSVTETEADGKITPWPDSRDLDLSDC
Sequence of HTR2A (P28223 whole entry): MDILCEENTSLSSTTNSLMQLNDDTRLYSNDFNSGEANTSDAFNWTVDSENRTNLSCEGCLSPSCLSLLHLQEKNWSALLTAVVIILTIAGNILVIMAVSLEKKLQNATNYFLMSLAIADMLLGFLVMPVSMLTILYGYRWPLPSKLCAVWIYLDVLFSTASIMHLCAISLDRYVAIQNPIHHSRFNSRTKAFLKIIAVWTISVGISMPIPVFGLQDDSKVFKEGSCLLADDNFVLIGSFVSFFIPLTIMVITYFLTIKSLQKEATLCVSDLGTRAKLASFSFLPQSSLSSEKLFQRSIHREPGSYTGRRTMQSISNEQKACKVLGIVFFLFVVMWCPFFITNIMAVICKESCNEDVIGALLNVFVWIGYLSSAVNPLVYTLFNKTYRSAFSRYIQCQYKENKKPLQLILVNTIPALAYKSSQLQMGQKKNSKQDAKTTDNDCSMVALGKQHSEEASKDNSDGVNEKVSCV
Sequence of PDE4D2 (Q08499 303-809 limits assumed): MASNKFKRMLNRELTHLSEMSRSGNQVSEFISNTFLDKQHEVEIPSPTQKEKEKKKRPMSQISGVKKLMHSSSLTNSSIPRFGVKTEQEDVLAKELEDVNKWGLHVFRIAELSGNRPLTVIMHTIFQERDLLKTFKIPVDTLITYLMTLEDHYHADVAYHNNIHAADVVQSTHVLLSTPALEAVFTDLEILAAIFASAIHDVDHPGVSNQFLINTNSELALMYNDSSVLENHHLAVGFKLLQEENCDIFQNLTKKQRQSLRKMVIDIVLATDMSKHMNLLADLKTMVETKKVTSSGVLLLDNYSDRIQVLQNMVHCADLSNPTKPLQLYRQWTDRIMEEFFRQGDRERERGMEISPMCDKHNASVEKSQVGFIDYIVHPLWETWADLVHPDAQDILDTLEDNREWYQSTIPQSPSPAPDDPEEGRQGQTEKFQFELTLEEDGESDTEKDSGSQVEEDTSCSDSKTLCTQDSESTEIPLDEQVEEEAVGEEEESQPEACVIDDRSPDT
Sequence of COX1 (P23219 24-599): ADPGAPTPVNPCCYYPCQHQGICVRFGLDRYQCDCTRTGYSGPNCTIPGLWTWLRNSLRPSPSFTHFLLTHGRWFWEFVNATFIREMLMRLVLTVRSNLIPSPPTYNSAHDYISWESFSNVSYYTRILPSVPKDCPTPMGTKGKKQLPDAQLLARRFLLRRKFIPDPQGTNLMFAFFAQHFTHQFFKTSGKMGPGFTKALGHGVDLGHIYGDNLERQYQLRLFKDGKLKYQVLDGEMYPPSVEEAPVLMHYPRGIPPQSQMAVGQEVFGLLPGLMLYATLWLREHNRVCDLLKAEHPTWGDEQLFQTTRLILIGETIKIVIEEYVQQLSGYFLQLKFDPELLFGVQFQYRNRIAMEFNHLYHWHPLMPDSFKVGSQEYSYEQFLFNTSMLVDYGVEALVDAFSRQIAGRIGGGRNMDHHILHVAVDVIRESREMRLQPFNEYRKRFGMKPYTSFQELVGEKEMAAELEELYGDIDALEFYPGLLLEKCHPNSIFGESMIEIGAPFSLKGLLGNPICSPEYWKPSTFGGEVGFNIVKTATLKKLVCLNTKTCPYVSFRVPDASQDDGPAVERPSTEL
Sequence of HRH1 (P35367 whole entry): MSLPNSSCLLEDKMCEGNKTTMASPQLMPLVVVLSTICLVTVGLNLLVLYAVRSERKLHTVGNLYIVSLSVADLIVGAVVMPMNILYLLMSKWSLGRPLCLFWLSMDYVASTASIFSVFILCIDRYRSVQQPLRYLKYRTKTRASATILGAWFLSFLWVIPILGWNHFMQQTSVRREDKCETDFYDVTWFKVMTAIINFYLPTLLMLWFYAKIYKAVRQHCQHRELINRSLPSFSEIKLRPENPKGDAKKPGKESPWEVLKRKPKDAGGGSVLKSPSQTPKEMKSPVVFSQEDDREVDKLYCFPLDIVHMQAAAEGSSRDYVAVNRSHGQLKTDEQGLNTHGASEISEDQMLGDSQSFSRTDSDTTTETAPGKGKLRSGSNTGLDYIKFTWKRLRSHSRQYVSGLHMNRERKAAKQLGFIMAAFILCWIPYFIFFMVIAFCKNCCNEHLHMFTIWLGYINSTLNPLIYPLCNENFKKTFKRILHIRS
Sequence of ROCK1 (Q13464 whole entry): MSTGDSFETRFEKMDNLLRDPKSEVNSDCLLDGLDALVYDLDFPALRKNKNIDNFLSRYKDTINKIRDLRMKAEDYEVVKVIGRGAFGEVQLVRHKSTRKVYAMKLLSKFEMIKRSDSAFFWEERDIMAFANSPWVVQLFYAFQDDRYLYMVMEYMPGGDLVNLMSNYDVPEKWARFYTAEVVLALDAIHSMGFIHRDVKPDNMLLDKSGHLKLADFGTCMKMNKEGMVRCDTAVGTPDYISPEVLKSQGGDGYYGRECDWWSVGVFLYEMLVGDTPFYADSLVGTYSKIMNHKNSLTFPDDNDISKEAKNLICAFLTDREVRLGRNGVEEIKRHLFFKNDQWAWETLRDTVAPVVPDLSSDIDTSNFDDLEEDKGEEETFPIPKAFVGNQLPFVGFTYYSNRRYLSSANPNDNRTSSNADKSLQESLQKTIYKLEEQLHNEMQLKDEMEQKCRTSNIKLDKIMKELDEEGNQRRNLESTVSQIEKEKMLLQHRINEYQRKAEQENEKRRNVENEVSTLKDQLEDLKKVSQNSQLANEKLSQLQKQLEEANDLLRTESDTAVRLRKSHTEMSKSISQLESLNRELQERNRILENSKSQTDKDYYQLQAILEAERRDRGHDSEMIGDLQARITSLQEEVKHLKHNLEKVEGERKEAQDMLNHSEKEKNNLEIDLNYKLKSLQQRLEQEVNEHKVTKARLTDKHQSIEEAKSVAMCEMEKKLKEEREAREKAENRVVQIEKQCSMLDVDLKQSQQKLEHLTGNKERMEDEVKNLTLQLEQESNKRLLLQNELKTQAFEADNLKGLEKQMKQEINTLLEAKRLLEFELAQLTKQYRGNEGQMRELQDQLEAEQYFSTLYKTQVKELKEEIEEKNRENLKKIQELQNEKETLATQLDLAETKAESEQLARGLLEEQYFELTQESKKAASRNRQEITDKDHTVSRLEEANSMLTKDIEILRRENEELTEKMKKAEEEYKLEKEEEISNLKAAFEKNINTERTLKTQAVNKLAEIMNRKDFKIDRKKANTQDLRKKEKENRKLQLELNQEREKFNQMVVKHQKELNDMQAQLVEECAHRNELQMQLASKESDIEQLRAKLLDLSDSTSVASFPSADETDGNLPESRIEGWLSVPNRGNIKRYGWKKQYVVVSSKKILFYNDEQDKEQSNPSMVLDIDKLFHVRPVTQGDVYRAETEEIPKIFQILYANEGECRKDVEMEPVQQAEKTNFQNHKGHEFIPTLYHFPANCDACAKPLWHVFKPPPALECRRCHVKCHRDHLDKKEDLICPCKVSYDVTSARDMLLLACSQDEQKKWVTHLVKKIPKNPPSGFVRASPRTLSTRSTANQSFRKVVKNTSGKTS
Sequence of HTR1B (P28222 whole entry): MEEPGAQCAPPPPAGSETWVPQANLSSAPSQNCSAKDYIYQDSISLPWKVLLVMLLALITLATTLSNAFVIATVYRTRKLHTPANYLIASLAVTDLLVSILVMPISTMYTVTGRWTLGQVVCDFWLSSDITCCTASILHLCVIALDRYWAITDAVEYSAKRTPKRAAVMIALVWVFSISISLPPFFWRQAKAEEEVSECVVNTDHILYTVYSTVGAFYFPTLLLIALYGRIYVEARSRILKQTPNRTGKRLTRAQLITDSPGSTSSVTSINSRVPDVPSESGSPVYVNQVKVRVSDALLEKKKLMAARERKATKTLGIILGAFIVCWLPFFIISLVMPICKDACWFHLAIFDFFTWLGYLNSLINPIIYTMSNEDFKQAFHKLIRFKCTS

Structure (SMILES) | IC50 (HTR1B) | Emax (HTR1B) | Emax (hERG; human) | IC50 (CNR2) | Emax (CNR2) | EC50 (HTR2A) | Emax (HTR2A) | IC50 (COX1) | Emax (COX1) | IC50 (ROCK1) | Emax (ROCK1) | IC50 (CHRM3) | Emax (CHRM3) | IC50 (HRH1) | Emax (HRH1) | IC50 (integrin αIIbβ3) | IC50 (PDE4D2) | Emax (PDE4D2) | EC50 (HRH2) | Emax (HRH2) | also measured
CC[C@H](C)[C@H](NC(=O)[C@H](CC(C)C)NC(=O)[C@H](CC(=O)O)NC(=O)CNC(=O)[C@H](CCCNC(=N)N)NC(=O)[C@@H](NC(=O)[C@H](Cc1ccccc1)NC(=O)[C@H](Cc1ccc(O)cc1)NC(=O)[C@@H]1CCC(=O)NCC(=O)NCC(=O)N[C@@H](CCCNC(=N)N)C(=O)NCC(=O)N[C@@H](Cc2c[nH]cn2)C(=O)N[C@@H](C(C)C)C(=O)N2CCC[C@H]2C(=O)N1)C(C)C)C(=O)N[C@@H](CO)C(=O)N[C@@H](Cc1ccccc1)C(=O)N[C@@H](Cc1ccc(O)cc1)C(=O)N[C@@H](CCCCN)C(=O)O [lassotide 36] (GGRGHVPEYFVRGDLISFYK-OH; lactam N-8) | > 45 µM | 0% | 5.06% | > 45 µM | 1.15% | > 45 µM | 1.7% | > 45 µM | 21% | > 45 µM | 19% | > 45 µM | 3.06% | > 45 µM | 0.3% | 0.332 µM | > 45 µM | 0% | > 45 µM | 0% | IC50 (hERG): > 45 µM
CC[C@H](C)[C@H](NC(=O)[C@H](CC(C)C)NC(=O)[C@H](CC(=O)O)NC(=O)CNC(=O)[C@H](CCCNC(=N)N)NC(=O)[C@@H](NC(=O)[C@H](Cc1ccccc1)NC(=O)[C@H](Cc1ccc(O)cc1)NC(=O)[C@@H]1CCC(=O)NCC(=O)NCC(=O)N[C@@H](CCCNC(=N)N)C(=O)NCC(=O)N[C@@H](Cc2c[nH]cn2)C(=O)N[C@@H](C(C)C)C(=O)N2CCC[C@H]2C(=O)N1)C(C)C)C(=O)N[C@@H](CO)C(=O)N[C@@H](Cc1ccccc1)C(=O)N[C@@H](Cc1ccc(O)cc1)C(=O)N[C@@H](CCCCNC(=O)CCOCCOCCNC(=O)CCCc1ccc(I)cc1)C(=O)O [lassotide 47] (GGRGHVPEYFVRGDLISFYK([PEG2-Butanoyl(4-(4-I-phenyl))])-OH; lactam N-8) | > 45 µM | 0% | 1.41% | > 45 µM | 2.1% | > 45 µM | 3.54% | > 45 µM | 19.4% | > 45 µM | 2.56% | > 45 µM | 0.91% | > 45 µM | 0% | 1.49 µM | > 45 µM | 28.5% | > 45 µM | 0% | IC50 (hERG; human): > 45 µM
